Measured values: patent publication US20230226002A1, “RETINAL BIOA[…] SYNTHETIC VERY-LONG-CHAIN POLYUNSATURATED FATTY ACIDS” (University of Utah Research Foundation, priority 2020, published 2023)

Legend:
[1] = π-A isotherms of VLC-PUFA in DSPC lipid monolayers (Langmuir trough); assay type: physicochemical
Method: Pressure-area (π-A) isotherms were collected using a Langmuir trough (KSV, Helsinki, Finland). PBS was used as the subphase for all isotherms. Stock solutions of pure VLC-PUFA, pure DSPC, and DSPC containing 0.1 mol %, 1 mol %, or 10 mol % VLC-PUFA were spread at the air/water interface and allowed to equilibrate for 15 minutes prior to compression to allow for solvent evaporation. The monolayers were compressed at a rate of 2 mm/min at 22±1° C. and repeated in triplicate. The averaged isotherms were smoothed using a 100-point rolling average. The MMA of mixture of VLC-PUFA in DSPC layers was calculated by the formula: MMADSPC+VLC-PUFA=MMADSPCXDSPC+MMAVLC-PUFAXVLC-PUFA, where the X is mol fraction of DSPC and VLC-PUFA in membrane.
After developing an efficient synthetic route to producing VLC-PUFAs, their previously unexplored biophysical properties were studied, including their impact on membrane packing and compressibility as well their influence on membrane dynamics, particularly lipid flip-flop. […] The changes imparted by VLC-PUFAs on lipid packing and the compression moduli of model membranes were evaluated from π-A isotherms of 32:6 n-3 in 1,2-distearoyl-sn-3-glycero-phosphocholine (DSPC) lipid monolayers (FIG. 2A). […]

[2] = DSPC flip-flop kinetics by sum-frequency vibrational spectroscopy; assay type: physicochemical; details: 0.1 mol % VLC-PUFA in DSPC vs pure DSPC, about 46° C.
Method: Planar supported lipid bilayers (PSLBs) used in this study were prepared using the Langmuir-Blodgett/Langmuir-Schaefer (LB/LS) method, the details of which are presented elsewhere (Liu and Conboy (2009) Vib. Spectrosc. 50: 106-115). Briefly, the cleaned SiO2 prisms were submerged in PBS. Afterwards, 0.1 mol % VLC-PUFA in DSPCd70 was spread over the air/water interface and allowed to thermally equilibrate for 15 minutes. Afterwards, the monolayer was compressed to 30 mN/m at a rate of 4 mm/min, and the surface pressure was allowed to stabilize for another 5 minutes. The prism was then withdrawn at a rate of 3 mm/min to deposit the LB layer. The subphase was removed, and the trough was cleaned using methanol, isopropanol, and water. […]
Following bilayer assembly, the flow-cell was flushed with PBS in D2O to eliminate any spectral interference from the 0-H bands from water. […] The flip-flop rates of DSPC were determined from the decay of methyl symmetric stretch mode (CH3 vs) for an asymmetrically prepared VLC-PUFA:DSPC membrane in which on leaflet contained dueterated DSPCd70 and DSPC. As DSPC lipid exchange between leaflets, the intensity of the CH3 vs decreases over time due to flip-flop and the rate of exchange is determined by fitting the data to ICH3(t)=Imin+Imaxe^−4kt, the results of which are presented in FIG. 2B. The half-lives of flip-flop were calculated using […]

[3] = Single dose gavage bioavailability, GC-MS of serum and tissues; assay type: in vivo, WT mice (C57BL/6J); details: single oral gavage dose of 6 mg, mice
Method: WT mice (C57BL/6J) mice have been used in this study for single dose gavage, repeated dose gavage and optomotry experiments. VLC-PUFA liposomes have been prepared using liposome kit (0.05%) with an addition of alpha-tocopherol (VE) (0.025%) to prevent oxidation. Three month old WT mice were gavage fed with VLC-PUFA liposomes. A dose of 6 mg/mice/day was used, half the dosage used for DHA by previous studies (Jiang, et al. (2009) The Journal of Nutritional Biochemistry 20: 735-741; Hacioglui, et al. (2007) Neurobiology of Learning and Memory 87: 159-165). The mice were gavage fed and sacrificed at time intervals (n=4/time point) of 2, 4, 8, and 24 hr to harvest the blood and other tissues. Eyes were dissected under the microscope to separate retina from RPE. One pair of retina/mouse have been used for lipid extraction as described in the procedure elsewhere. Blood was centrifuged for 5 min at 7500 rpm to separate serum from RBC. Serum, RBC, liver, retina and RPE have been used for lipid extractions and GC-MS analysis.
(§1) Serum, RBCs, orbital adipose tissue, and retina punches, were extracted using the procedure previously adopted (Liu, et al. (2013) J. Chromatogr. A 1307: 191-200). The samples and internal standards (50 μg of tridecanoic acid and 1.15 μg of hentriacontanoic acid) were added in 2 ml stainless steel vials and then homogenized with 0.7 ml silica beads and 1 ml hexane-isopropanol (3:2 v:v) by a Mini Bead Beater-16 (BioSpec Products Inc., Bartlesville, Okla., USA) and a Sonic Dismembrator Model 100 (Fisher Scientific, Pittsburgh, Pa., USA). The homogenized samples were bath sonicated for 5 min in an ice water bath. After centrifugation at 10,000 rpm for 5 min, the extracted solution supernatant was transferred to a clean vial and then dried under a stream of nitrogen. The dried film was dissolved in 200 μl hexane, and 2 ml of 4% HCl in methanol was added. The tubes were flushed with argon and incubated at 80° C. for 4 hr to form FAMEs (Liu, et al. (2013) J. Chromatogr. A 1307: 191-200) and then allowed to cool. The FAME mixture was extracted three times with 1 ml distilled water and 2 ml hexane. The hexane layers were combined and dried under nitrogen gas.
(§2) Silica gel, glass-encased, solid-phase extraction cartridges were subsequently used to clean the FAME extracts. The cartridge was activated with 6 ml of hexane before loading samples. The crude FAME extract was dissolved in 200 μl of hexane and loaded onto the activated cartridge. The cartridge was washed with 6 ml hexane, and the eluate was discarded. FAMEs were eluted from the cartridge with 5 ml hexane:ether (4:1), and the eluate was evaporated under nitrogen gas. The dry film was dissolved in 200 μl of hexane and centrifuged for 3 min at 14,000 rpm to remove particles prior to GC-MS analysis. 1 μl of sample was injected into the GC-MS instrument for LC-PUFAs analysis. For VLC-PUFAs analysis, the sample was dried with nitrogen again and re-dissolved in 20 μl of n-nonane, and 5 μl samples were injected into the GC-MS instrument.
(§3) The Thermo Trace GC-DSQ II system (ThermoFisher Scientific, Waltham, Mass., USA) consists of an automatic sample injector (AS 3000), gas chromatograph (GC), single quadrupole mass detector, and an analytical workstation. The chromatographic separation was carried out with an Rxi-5MS coated 5% diphenyl/95% dimethyl polysiloxane capillary column (30 m×0.25 mm i.d, 0.25 μm film thickness) (Restek, Bellefonte, Pa., USA). Two methods (A and B) were used for detection and quantitation of LC-PUFAs and VLC-PUFAs, respectively as previously published (Liu, et al. (2013) J. Chromatogr. A 1307: 191-200). Bovine retina VLC-PUFAs were extracted and employed as VLC-PUFA standards to establish retention times because commercial standards are not available, and identification of each VLC-PUFA in retinal samples was achieved as described in prior work (Liu, et al. (2010) J. Lipid Res. 51: 3217-3229).

[4] = Repeated dose gavage for 15 days, GC-MS of serum and tissues; assay type: in vivo, WT mice (C57BL/6J); details: gavage 15 days
Method: Repeated dose gavage. VLC-PUFA liposomes were gavaged to three month old WT mice for 15 days. The mice were divided into three groups (n=4/group), Group 1 was fed with liposomes prepared with PC and alpha-tocopherol, Group 2 was fed with liposomes prepared with PC, VE, and 1 mg VLC-PUFAs and Group 3 was fed with liposomes with PC, VE and 2 mg VLC-PUFAs. Mice were sacrificed at the end of the experiment and organs were harvested, extracted for lipids and analyzed by GC-MS using the procedure mentioned elsewhere.
as §1, §2, §3

[5] = system: WT mice (C57BL/6J); assay: Optomotry/Visual behavior test after repeated dose gavage; assay type: in vivo; details: 2 mg/day for 15 days by gavage, compared to controls
Method: Optomotry/Visual behavior test. Repeated dose gavage fed mice were tested for visual behavior to observe the effect of VLC-PUFA on vision. Since the optomotry tests could be manipulative, all the analysts were double blinded. 3 month-old mice were employed to test spatial visual acuity using the OptoMotry system (Cerebral Mechanics, Lethbridg, AB, Canada). Briefly, individual mice were placed on a platform centered in a quad-square formed by four inward facing computer screens, and their movements were monitored by an overhead video camera. Photopic measurements were conducted under illuminance of around 165 lux. […] During the detection of spatial frequency threshold, the rotation speed and contrast were kept at 12°/s, and 100%, respectively, while the frequency was kept at 0.19 cycle/degree in the examination of contrast sensitivity. All experiments had concurrent control mice fed with placebo chow.

[6] = 1 and 2 mg/day groups vs control mice (undetectable)
[7] = both 1 and 2 mg/day groups vs 0 mg/day controls, mice

CC/C=C\C/C=C\C/C=C\C/C=C\C/C=C\C/C=C\CCCCCCCCCCCCC(=O)O [32:6 n-3, (14Z,17Z,20Z,23Z,26Z,29Z)-dotriaconta-14,17,20,23,26,29-hexaenoic acid]
elasticity of DSPC membranes ([1]; 0.1 mol % VLC-PUFA in DSPC membranes): high elasticity | shift of π-A isotherm / mean molecular area (MMA) of the lipids ([1]; 0.1 mol %, 1 mol % and 10 mol % VLC-PUFA in DSPC monolayer, PBS pH 7.4 subphase, 22° C.): shifted the π-A isotherm to higher MMAs | increase of the DSPC flip-flop rate [2]: 4 fold | 32:6 n-3 level in RPE ([3]; 4-8 hr after gavage): significant increase | 32:6 n-3 level in retina ([3]; 4-8 hr after gavage): significant increase | time until serum VLC-PUFAs became detectable ([3]; serum): ≤ 2 h | serum VLC-PUFA concentration course after the first detection ([3]; serum, over the next 24 hr): reached a lower steady-state concentration | VLC-PUFAs in brain ([3]; throughout the 24 hr-period): undetectable | VLC-PUFAs in liver ([3]; throughout the 24 hr-period): undetectable | VLC-PUFAs in red blood cell (RBC) membranes ([3]; throughout the 24 hr-period): undetectable | RBC VLC-PUFAs [4, 6]: significant increase | serum VLC-PUFAs [4, 6]: significant increase | VLC-PUFAs in brain ([4]; 1 and 2 mg/day, mice): no VLC-PUFAs were detectable | VLC-PUFAs in liver ([4]; 1 and 2 mg/day, mice): detectable levels of VLC-PUFAs only in the 2 mg/day group | increase of VLC-PUFA levels in RPE [4, 7]: 7 fold | increase of VLC-PUFA levels in retina [4, 7]: 2 fold | toxic symptoms or behavioral changes ([4]; treatment groups compared to the control group, mice): toxic symptoms or behavioral changes were observed | contrast sensitivity (rod function) [5]: improved significantly | visual acuity (cone function) [5]: improved significantly
